Measurements taken from US20240350421A1, “Cationic Polymeric Nanoparticles and Their Uses in Treating Diseases” (University of Connecticut, priority 2021, published 2024).

Assay: Cell proliferation (trypan blue) assay in HeLa cells
Type: cell-based
Details: human, read-out: reduction in cell viability
Procedure: 200,000 PBMC cells were seeded in a plate (12 well) overnight and treated with 2 mg/mL blank F2 NPs and 150 μL of lipofectamine. After 24 h, cells were stained with trypan blue dye and total live cells were determined by cell counter (Bio-Rad, USA). For cytotoxicity assay in HeLa cells, 50,000 HeLa cells were seeded in plates (24 well) and treated with paclitaxel (PTX) F2 NPs for 24 h, and cell viability was measured by staining with trypan blue dye.

**Q.** Which cytotoxicity at 24 h does the source give for `CC(=O)O[C@H]1C(=O)[C@@]2(C)[C@H]([C@H](OC(=O)c3ccccc3)[C@]3(O)C[C@H](OC(=O)[C@H](O)[C@@H](NC(=O)c4ccccc4)c4ccccc4)C(C)=C1C3(C)C)[C@]1(OC(C)=O)CO[C@@H]1C[C@@H]2O` [PTX suspension, paclitaxel] here?
**A.** The cytotoxicity at 24 h was 17%.
